Measurements reported in PMC3839082 (Proteins, 2011).

Target: hCINAP (Homo sapiens, UniProt Q9Y3D8)
Assay: coupled PK/LDH adenylate kinase assay
Format: biochemical

Sequence of hCINAP (Q9Y3D8 whole entry): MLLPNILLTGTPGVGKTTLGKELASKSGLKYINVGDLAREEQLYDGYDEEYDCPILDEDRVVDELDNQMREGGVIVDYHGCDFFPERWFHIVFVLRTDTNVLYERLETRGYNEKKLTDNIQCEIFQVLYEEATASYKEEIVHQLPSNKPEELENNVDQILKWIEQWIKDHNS

IC50: 0.027 ± 0.00293 µM
SMILES: Nc1ncnc2c1ncn2[C@@H]1O[C@H](COP(=O)(O)OP(=O)(O)OP(=O)(O)OP(=O)(O)OP(=O)(O)OC[C@H]2O[C@@H](n3cnc4c(N)ncnc43)[C@H](O)[C@@H]2O)[C@@H](O)[C@H]1O [AP5A]
